What was measured:
[1] = target: T1, Alpha-2A adrenergic receptor (Homo sapiens) (UniProt P08913); details: Compound concentration 10.0 uM
T1 sequence (whole entry): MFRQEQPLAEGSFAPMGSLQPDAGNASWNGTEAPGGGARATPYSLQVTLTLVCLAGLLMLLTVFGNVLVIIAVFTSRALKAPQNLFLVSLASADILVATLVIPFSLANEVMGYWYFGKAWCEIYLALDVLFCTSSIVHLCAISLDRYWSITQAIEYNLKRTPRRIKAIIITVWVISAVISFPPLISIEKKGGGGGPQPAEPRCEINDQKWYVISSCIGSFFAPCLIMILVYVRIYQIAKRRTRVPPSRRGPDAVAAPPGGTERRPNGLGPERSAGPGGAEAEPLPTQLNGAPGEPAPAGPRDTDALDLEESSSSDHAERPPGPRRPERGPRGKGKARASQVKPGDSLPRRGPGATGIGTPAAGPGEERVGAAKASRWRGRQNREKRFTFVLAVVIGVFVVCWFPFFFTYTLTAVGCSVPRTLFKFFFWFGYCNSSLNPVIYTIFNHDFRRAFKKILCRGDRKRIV

[2] = target: Interferon-induced, double-stranded RNA-activated protein kinase (Homo sapiens) (UniProt P19525); details: Compound concentration 1000.0 nM
[3] = target: Ephrin type-B receptor 1 (Homo sapiens) (UniProt P54762); details: Compound concentration 1000.0 nM
[4] = target: Serine/threonine-protein kinase NLK (Homo sapiens) (UniProt Q9UBE8); details: Compound concentration 1000.0 nM
[5] = target: Serine/threonine-protein kinase 10 (Homo sapiens) (UniProt O94804); details: Compound concentration 1000.0 nM
[6] = target: Mitotic checkpoint serine/threonine-protein kinase BUB1 (Homo sapiens) (UniProt O43683); details: Compound concentration 1000.0 nM
[7] = target: Vascular endothelial growth factor receptor 1 (Homo sapiens) (UniProt P17948); details: Compound concentration 1000.0 nM
[8] = test system: Epidermal growth factor receptor (Homo sapiens), P00533 [L858R,T790M]; details: Compound concentration 1000.0 nM
[9] = target: Rhodopsin kinase GRK7 (Homo sapiens) (UniProt Q8WTQ7); details: Compound concentration 1000.0 nM
[10] = test system: Receptor-type tyrosine-protein kinase FLT3 (Homo sapiens), P36888 [D835H]; details: Compound concentration 1000.0 nM
[11] = target: Ephrin type-A receptor 5 (Homo sapiens) (UniProt P54756); details: Compound concentration 1000.0 nM
[12] = target: Macrophage colony-stimulating factor 1 receptor (Homo sapiens) (UniProt P07333); details: Compound concentration 1000.0 nM
[13] = test system: Epidermal growth factor receptor (Homo sapiens), P00533 [G719C]; details: Compound concentration 1000.0 nM
[14] = test system: Epidermal growth factor receptor (Homo sapiens), P00533 [L858R]; details: Compound concentration 1000.0 nM
[15] = target: Ephrin type-B receptor 2 (Homo sapiens) (UniProt P29323); details: Compound concentration 1000.0 nM
[16] = target: Macrophage-stimulating protein receptor (Homo sapiens) (UniProt Q04912); details: Compound concentration 1000.0 nM
[17] = target: Tyrosine-protein kinase Lck (Homo sapiens) (UniProt P06239); details: Compound concentration 1000.0 nM
[18] = target: Tyrosine-protein kinase JAK3 (Homo sapiens) (UniProt P52333); details: Compound concentration 1000.0 nM
[19] = target: 5'-AMP-activated protein kinase catalytic subunit alpha-1 (Homo sapiens) (UniProt Q13131); details: Compound concentration 1000.0 nM
[20] = target: Casein kinase I isoform gamma-3 (Homo sapiens) (UniProt Q9Y6M4); details: Compound concentration 1000.0 nM
[21] = target: Tyrosine-protein kinase ABL1 (Homo sapiens) (UniProt P00519); details: Compound concentration 1000.0 nM
[22] = target: SRSF protein kinase 3 (Homo sapiens) (UniProt Q9UPE1); details: Compound concentration 1000.0 nM
[23] = target: Tyrosine-protein kinase JAK2 (Homo sapiens) (UniProt O60674); details: Compound concentration 1000.0 nM
[24] = target: Dual specificity mitogen-activated protein kinase kinase 3 (Homo sapiens) (UniProt P46734); details: Compound concentration 1000.0 nM
[25] = test system: Epidermal growth factor receptor (Homo sapiens), P00533 [T790M]; details: Compound concentration 1000.0 nM
[26] = target: Ephrin type-B receptor 3 (Homo sapiens) (UniProt P54753); details: Compound concentration 1000.0 nM
[27] = target: Homeodomain-interacting protein kinase 4 (Homo sapiens) (UniProt Q8NE63); details: Compound concentration 1000.0 nM
[28] = target: Bone morphogenetic protein receptor type-1B (Homo sapiens) (UniProt O00238); details: Compound concentration 1000.0 nM
[29] = target: Homeodomain-interacting protein kinase 1 (Homo sapiens) (UniProt Q86Z02); details: Compound concentration 1000.0 nM
[30] = test system: Epidermal growth factor receptor (Homo sapiens), P00533 [UNDEFINED MUTATION]; details: Compound concentration 1000.0 nM
[31] = target: Tyrosine-protein kinase FRK (Homo sapiens) (UniProt P42685); details: Compound concentration 1000.0 nM
[32] = target: Maternal embryonic leucine zipper kinase (Homo sapiens) (UniProt Q14680); details: Compound concentration 1000.0 nM
[33] = target: GABA-A receptor; anion channel (Rattus norvegicus) (UniProt O09028+P15431+P18506+P18508+P19969+P20236+P23574+P23576+P28471+P28473+P30191+P62813+P63079+P63138+Q91ZM7+Q9ES14); details: Compound concentration 10.0 uM
[34] = test system: Mast/stem cell growth factor receptor Kit (Homo sapiens), P10721 [V559D]; details: Compound concentration 1000.0 nM
[35] = target: Fibroblast growth factor receptor 2 (Homo sapiens) (UniProt P21802); details: Compound concentration 1000.0 nM
[36] = target: Vascular endothelial growth factor receptor 3 (Homo sapiens) (UniProt P35916); details: Compound concentration 1000.0 nM
Chain of Vascular endothelial growth factor receptor 3 (Homo sapiens) (P35916 whole entry): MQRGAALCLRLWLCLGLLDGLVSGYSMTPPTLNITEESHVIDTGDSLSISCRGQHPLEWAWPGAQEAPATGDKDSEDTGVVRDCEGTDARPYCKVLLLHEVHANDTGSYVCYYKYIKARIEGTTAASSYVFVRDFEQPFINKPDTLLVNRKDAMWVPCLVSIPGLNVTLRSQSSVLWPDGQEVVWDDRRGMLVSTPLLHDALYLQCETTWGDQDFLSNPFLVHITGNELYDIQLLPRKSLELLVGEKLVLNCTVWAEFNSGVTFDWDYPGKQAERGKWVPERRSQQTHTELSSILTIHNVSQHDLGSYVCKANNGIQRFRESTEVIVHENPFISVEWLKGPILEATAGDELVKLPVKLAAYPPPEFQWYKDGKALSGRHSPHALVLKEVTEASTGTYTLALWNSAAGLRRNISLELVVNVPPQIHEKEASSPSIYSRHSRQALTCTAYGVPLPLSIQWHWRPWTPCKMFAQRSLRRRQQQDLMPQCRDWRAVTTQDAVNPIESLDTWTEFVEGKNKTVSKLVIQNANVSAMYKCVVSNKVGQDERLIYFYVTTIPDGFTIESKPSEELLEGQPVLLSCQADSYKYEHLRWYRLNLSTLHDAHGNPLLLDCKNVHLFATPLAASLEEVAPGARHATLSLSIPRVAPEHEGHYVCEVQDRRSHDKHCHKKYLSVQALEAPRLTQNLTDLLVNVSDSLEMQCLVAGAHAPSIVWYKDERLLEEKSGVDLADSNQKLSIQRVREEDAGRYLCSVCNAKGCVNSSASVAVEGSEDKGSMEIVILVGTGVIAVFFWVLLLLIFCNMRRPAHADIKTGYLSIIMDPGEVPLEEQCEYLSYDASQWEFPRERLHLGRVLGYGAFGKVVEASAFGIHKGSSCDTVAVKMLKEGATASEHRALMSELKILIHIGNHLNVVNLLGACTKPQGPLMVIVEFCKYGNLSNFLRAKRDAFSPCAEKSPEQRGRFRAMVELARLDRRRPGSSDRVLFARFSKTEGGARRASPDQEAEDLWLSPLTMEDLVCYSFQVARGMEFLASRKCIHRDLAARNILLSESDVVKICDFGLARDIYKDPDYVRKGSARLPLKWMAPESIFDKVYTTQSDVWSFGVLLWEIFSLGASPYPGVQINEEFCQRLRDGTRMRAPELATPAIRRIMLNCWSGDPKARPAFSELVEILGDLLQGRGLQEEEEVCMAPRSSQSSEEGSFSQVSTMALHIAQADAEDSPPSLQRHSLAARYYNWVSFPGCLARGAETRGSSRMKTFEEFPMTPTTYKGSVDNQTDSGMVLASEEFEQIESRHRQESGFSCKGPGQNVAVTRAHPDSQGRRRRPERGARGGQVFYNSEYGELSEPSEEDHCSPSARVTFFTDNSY

Chain of SRSF protein kinase 3 (Homo sapiens) (Q9UPE1 whole entry): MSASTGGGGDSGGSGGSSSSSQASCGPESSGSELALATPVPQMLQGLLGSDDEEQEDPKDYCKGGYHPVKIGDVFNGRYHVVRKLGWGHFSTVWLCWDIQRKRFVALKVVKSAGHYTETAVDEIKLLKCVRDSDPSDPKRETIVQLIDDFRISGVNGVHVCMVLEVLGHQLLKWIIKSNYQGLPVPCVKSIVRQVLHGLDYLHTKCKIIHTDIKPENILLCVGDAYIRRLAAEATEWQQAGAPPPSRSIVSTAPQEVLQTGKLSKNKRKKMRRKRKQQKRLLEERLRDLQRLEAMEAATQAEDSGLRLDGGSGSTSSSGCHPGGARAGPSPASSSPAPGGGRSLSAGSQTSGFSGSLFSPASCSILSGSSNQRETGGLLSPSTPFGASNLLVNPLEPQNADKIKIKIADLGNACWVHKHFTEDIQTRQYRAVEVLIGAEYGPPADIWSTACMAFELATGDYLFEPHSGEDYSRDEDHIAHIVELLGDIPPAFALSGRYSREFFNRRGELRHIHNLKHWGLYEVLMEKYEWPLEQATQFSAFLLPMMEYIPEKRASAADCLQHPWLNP
Chain of Macrophage colony-stimulating factor 1 receptor (Homo sapiens) (P07333 whole entry): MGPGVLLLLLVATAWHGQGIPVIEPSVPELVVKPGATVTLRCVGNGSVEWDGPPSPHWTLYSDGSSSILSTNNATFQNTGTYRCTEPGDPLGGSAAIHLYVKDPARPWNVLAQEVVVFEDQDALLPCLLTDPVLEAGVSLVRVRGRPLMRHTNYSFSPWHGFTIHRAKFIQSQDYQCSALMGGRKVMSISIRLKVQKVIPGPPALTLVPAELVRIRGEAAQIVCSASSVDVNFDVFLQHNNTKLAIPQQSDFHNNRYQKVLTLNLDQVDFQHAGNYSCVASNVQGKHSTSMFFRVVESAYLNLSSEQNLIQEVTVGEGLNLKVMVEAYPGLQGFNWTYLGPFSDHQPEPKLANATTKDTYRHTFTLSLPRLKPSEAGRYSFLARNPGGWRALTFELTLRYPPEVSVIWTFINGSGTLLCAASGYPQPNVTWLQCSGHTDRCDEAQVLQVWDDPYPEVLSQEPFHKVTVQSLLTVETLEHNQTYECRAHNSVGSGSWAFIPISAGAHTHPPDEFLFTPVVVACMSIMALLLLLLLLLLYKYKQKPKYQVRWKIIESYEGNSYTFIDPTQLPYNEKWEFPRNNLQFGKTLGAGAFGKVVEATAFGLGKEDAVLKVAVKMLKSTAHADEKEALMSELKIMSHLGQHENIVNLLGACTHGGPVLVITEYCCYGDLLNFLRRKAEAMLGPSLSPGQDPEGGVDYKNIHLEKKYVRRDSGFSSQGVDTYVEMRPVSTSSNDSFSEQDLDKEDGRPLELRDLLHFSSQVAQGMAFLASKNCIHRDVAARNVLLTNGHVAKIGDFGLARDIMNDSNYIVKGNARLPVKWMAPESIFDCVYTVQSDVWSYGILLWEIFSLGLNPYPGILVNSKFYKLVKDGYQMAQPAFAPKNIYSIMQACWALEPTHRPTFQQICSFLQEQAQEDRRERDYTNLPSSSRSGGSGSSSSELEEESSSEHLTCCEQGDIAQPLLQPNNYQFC
Chain of Bone morphogenetic protein receptor type-1B (Homo sapiens) (O00238 whole entry): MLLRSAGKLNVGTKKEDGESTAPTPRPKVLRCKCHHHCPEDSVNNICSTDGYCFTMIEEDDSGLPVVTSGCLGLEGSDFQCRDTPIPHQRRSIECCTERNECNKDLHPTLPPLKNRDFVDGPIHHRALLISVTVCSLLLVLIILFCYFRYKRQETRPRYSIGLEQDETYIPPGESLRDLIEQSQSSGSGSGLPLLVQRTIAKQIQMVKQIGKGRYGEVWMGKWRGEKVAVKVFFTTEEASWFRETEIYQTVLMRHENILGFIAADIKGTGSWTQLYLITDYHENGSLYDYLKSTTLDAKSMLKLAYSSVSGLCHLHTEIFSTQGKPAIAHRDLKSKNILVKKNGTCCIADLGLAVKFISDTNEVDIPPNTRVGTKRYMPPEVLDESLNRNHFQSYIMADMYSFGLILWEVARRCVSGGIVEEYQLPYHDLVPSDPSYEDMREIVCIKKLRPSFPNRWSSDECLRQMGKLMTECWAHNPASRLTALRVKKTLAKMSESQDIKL
Chain of Rhodopsin kinase GRK7 (Homo sapiens) (Q8WTQ7 whole entry): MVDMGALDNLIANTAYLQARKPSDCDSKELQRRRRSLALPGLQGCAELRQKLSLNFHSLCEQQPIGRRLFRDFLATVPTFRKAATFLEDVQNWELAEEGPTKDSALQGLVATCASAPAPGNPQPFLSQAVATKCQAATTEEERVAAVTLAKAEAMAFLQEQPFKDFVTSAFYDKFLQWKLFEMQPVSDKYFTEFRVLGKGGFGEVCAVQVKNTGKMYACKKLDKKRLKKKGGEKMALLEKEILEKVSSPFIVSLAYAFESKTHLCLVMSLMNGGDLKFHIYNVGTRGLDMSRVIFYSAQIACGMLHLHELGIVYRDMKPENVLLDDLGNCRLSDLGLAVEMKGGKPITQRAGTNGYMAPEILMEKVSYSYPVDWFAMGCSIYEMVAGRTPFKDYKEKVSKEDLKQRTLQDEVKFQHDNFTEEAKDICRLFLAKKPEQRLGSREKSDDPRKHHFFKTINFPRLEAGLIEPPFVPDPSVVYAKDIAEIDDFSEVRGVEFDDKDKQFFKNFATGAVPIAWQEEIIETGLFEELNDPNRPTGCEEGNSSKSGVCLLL
Chain of Fibroblast growth factor receptor 2 (Homo sapiens) (P21802 22-821 limits assumed): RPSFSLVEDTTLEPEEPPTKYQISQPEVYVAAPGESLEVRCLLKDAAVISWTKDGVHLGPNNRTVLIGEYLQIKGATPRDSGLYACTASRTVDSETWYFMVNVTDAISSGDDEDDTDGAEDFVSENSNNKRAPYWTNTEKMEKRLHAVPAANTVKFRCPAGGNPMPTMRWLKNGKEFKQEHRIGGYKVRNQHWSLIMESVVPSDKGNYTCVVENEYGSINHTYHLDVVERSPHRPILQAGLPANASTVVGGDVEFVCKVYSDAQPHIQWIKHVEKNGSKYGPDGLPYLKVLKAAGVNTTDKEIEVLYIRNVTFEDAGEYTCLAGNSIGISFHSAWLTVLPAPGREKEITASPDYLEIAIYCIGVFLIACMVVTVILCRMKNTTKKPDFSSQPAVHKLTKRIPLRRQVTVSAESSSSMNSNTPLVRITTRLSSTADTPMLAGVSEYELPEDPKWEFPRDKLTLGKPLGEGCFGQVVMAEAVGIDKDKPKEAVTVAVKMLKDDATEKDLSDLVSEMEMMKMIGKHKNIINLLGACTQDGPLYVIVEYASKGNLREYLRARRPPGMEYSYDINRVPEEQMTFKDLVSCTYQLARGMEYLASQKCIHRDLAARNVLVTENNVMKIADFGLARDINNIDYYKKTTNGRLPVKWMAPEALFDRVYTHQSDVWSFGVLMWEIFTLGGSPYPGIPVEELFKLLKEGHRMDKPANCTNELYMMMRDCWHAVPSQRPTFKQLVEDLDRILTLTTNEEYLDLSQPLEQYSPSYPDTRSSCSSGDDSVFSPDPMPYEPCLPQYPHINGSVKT

Cc1c(C(=O)O)cc(-c2ccc(C3CCNCC3)cc2)c2ccc(-c3ccc(C(F)(F)F)cc3)cc12 [PPTN-NC]
inactive: inhibition [1] 34.8% | residual activity [2] 100% | residual activity [3] 100% | residual activity [4] 100% | residual activity [5] 100% | residual activity [6] 100% | residual activity [7] 80% | residual activity [8] 100% | residual activity [9] 91% | residual activity [10] 90% | residual activity [11] 100% | residual activity [12] 96% | residual activity [13] 100% | residual activity [14] 100% | residual activity [15] 92% | residual activity [16] 100% | residual activity [17] 100% | residual activity [18] 100% | residual activity [19] 98% | residual activity [20] 100% | residual activity [21] 85% | residual activity [22] 100% | residual activity [23] 100% | residual activity [24] 100% | residual activity [25] 87% | residual activity [26] 100% | residual activity [27] 100% | residual activity [28] 100% | residual activity [29] 100% | residual activity [30] 100% | residual activity [31] 100% | residual activity [32] 100% | inhibition [33] 10.6% | residual activity [34] 100% | residual activity [35] 100% | residual activity [36] 100%

O=C(O)c1cc(-c2ccc(C3CCNCC3)cc2)c2ccc(-c3ccc(C(F)(F)F)cc3)cc2c1 [PPTN]
inactive: inhibition [1] 38.2% | residual activity [2] 100% | residual activity [3] 100% | residual activity [4] 100% | residual activity [5] 100% | residual activity [6] 100% | residual activity [7] 86% | residual activity [8] 100% | residual activity [9] 85% | residual activity [10] 81% | residual activity [11] 97% | residual activity [12] 85% | residual activity [13] 100% | residual activity [14] 100% | residual activity [15] 100% | residual activity [16] 100% | residual activity [17] 100% | residual activity [18] 100% | residual activity [19] 100% | residual activity [20] 100% | residual activity [21] 72% | residual activity [22] 82% | residual activity [23] 100% | residual activity [24] 100% | residual activity [25] 96% | residual activity [26] 100% | residual activity [27] 100% | residual activity [28] 100% | residual activity [29] 97% | residual activity [30] 100% | residual activity [31] 100% | residual activity [32] 98% | inhibition [33] -3.62% | residual activity [34] 100% | residual activity [35] 100% | residual activity [36] 100%

Reference: ChEMBL document CHEMBL4507292 (2021)
